Measured values published in US6726940B2, “Use of at least one extract of the genus chrysanthemum for assisting skin and/or hair pigmentation” (Societe L'Oreal S.A., priority 1997, dated 2004).

Experiments:
[1] = tested on: co-cultures of normal human keratinocytes/melanocytes; experiment: Synthesis of proteins: incorporation of tritiated leucine, indicator of cytotoxicity and of proliferation; assay type: cell-based; details: NHK/NHM co-culture, three days treatment
Protocol: The modulator effect on melanogenesis of the extract obtained by Protocol 2 of Example 1 was tested on co-cultures of normal human keratinocytes/melanocytes according to the method described in the Patent FR 95 06491. The rate of synthesis of melanine is evaluated by the incorporation of thiouracil labelled with C^14. The synthesis of the proteins, determined by the incorporation of tritiated leucine, is taken as an indicator of cytotoxicity and of proliferation.
The normal human keratinocytes (NHK) and the normal human melanocytes (NHM) are cultured from preputial skin. The two types of cells are proliferated and stored frozen. Eight days before the test, each of the cell types is again put into culture in KGM medium from Gibco for keratinocytes (NHK) and into M2 medium from Dr Olsson for melanocytes (NHM) (Olsson, M. J. et al., Lancet (1992) 340, 981). […]
The total radioactivity incorporated in the proteins is estimated by the incorporation of tritiated leucine. […]
After one night, the cells are rinsed in phosphate buffer. The proteins are precipitated with the aid of 5% trichloroacetic acid (TCA) and washed in order to eliminate the free radioactivity. […]
The remainder of the extract, or 950 μl, is filtered through a DEAE Filtermat filter. […] The radioactivity is counted with the aid of the Wallac counter. The results are expressed as a percentage of the control according to the formula: [formula] […]

[2] = tested on: co-cultures of normal human keratinocytes/melanocytes; experiment: Modulation of melanogenesis: incorporation of 14C thiouracil in co-cultures of keratinocytes/melanocytes; assay type: cell-based; details: NHK/NHM co-culture, three days treatment
Protocol: The modulator effect on melanogenesis of the extract obtained by Protocol 2 of Example 1 was tested on co-cultures of normal human keratinocytes/melanocytes according to the method described in the Patent FR 95 06491. The rate of synthesis of melanine is evaluated by the incorporation of thiouracil labelled with C^14. The synthesis of the proteins, determined by the incorporation of tritiated leucine, is taken as an indicator of cytotoxicity and of proliferation. The normal human keratinocytes (NHK) and the normal human melanocytes (NHM) are cultured from preputial skin. The two types of cells are proliferated and stored frozen. […] The proteins are precipitated with the aid of 5% trichloroacetic acid (TCA) and washed in order to eliminate the free radioactivity. […] The radioactivity is counted with the aid of the Wallac counter. The results are expressed as a percentage of the control according to the formula: [formula] in which: ^14CP is the average of the disintegrations per minute (dpm) of ^14C thiouracil in 3 similar wells treated with a product (P); ^3HP is the average of the corresponding ^3H leucine dpm; ^14CT is the average of the ^14C thiouracil dpm in 3 similar control wells (T); ^3HT is the average of the corresponding ^3H leucine dpm.

SMILES	^3HLeu. (%/control) ([1]; 0.5 mM)	^14CThioU. (%/control) ([2]; 0.5 mM)	^3HLeu. (%/control) ([1]; 1 mM)	^14CThioU. (%/control) ([2]; 1 mM)
O=c1cc(CO)occ1O [kojic acid]	+4 %/control	−47 %/control	–	–
N[C@@H](Cc1ccc(O)cc1)C(=O)O [tyrosine]	–	–	−2 %/control	+118 %/control
